Source: ChEMBL document CHEMBL1201862, “PubChem BioAssay data set” (2004)
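A five-concentration, 48-hour dose response in 96-well plates underlies each endpoint, interpolated linearly between surrounding concentrations. GI50 marks 50% less growth.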 Calls of active or inactive are those of the source. Cut-off read from the data, not from the text of the source: active = GI50 up to about 1.1 µM and inactive = higher.

Columns and labels:
Test in all cases: NCI-60 cell line screen, 48 h
[1] = system: A498
[2] = system: BT-549
[3] = system: CCRF-CEM
[4] = system: DU-145
[5] = system: HCT-15
[6] = system: IGROV-1
[7] = system: KM12
[8] = system: LOX IMVI
[9] = system: PC-3
[10] = system: SK-MEL-2
[11] = system: SK-MEL-5
[12] = system: SK-OV-3
[13] = system: SR
[14] = system: SW-620
[15] = system: T47D
[16] = system: TK-10
[17] = system: UACC-257
[18] = system: UACC-62
[19] = system: HOP-92
[20] = system: RXF 393

Compound: Cc1nc2cc(Cl)c(N)cc2[nH]1
- GI50 [1]: > 100 µM (inactive)
- GI50 [2]: > 100 µM (inactive)
- GI50 [3]: > 100 µM (inactive)
- GI50 [4]: > 100 µM (inactive)
- GI50 [5]: > 100 µM
- GI50 [6]: > 100 µM (inactive)
- GI50 [7]: > 100 µM (inactive)
- GI50 [8]: > 100 µM (inactive)
- GI50 [9]: > 100 µM (inactive)
- GI50 [10]: > 100 µM (inactive)
- GI50 [11]: > 100 µM (inactive)
- GI50 [12]: > 100 µM (inactive)
- GI50 [13]: > 100 µM (inactive)
- GI50 [14]: > 100 µM (inactive)
- GI50 [15]: > 100 µM (inactive)
- GI50 [16]: > 100 µM (inactive)
- GI50 [17]: > 100 µM (inactive)
- GI50 [18]: > 100 µM (inactive)

Compound: Clc1ccc(Nc2ncco2)cc1Cl
- GI50 [1]: > 10 µM (inactive)
- GI50 [2]: > 10 µM (inactive)
- GI50 [3]: > 10 µM (inactive)
- GI50 [4]: > 10 µM (inactive)
- GI50 [5]: > 10 µM
- GI50 [19]: > 10 µM (inactive)
- GI50 [6]: > 10 µM (inactive)
- GI50 [7]: > 10 µM (inactive)
- GI50 [8]: > 10 µM (inactive)
- GI50 [9]: > 10 µM (inactive)
- GI50 [11]: > 10 µM (inactive)
- GI50 [12]: > 10 µM (inactive)
- GI50 [13]: > 10 µM (inactive)
- GI50 [14]: > 10 µM (inactive)
- GI50 [15]: > 10 µM (inactive)
- GI50 [16]: > 10 µM (inactive)
- GI50 [17]: > 10 µM (inactive)
- GI50 [18]: > 10 µM (inactive)

Compound: O=c1[nH]c(=O)n(C2OC(CO)C(O)C2O)c2nc(-c3ccc(-c4ccccc4)cc3)cnc12 (stereo not given)
- GI50 [1]: > 100 µM (inactive)
- GI50 [2]: > 100 µM (inactive)
- GI50 [3]: > 100 µM (inactive)
- GI50 [4]: > 100 µM (inactive)
- GI50 [5]: > 100 µM
- GI50 [19]: > 100 µM (inactive)
- GI50 [6]: > 100 µM (inactive)
- GI50 [7]: > 100 µM (inactive)
- GI50 [8]: > 100 µM (inactive)
- GI50 [9]: > 100 µM (inactive)
- GI50 [20]: > 100 µM (inactive)
- GI50 [10]: > 100 µM (inactive)
- GI50 [11]: 40.6 µM (inactive)
- GI50 [12]: > 100 µM (inactive)
- GI50 [14]: > 100 µM (inactive)
- GI50 [15]: > 100 µM (inactive)
- GI50 [16]: > 100 µM (inactive)
- GI50 [17]: > 100 µM (inactive)
- GI50 [18]: > 100 µM (inactive)

Compound: Cc1c2c(n(CCc3ccccc3)c1C)NN=C(C#N)S2(=O)=O
- GI50 [2]: > 100 µM (inactive)
- GI50 [4]: > 100 µM (inactive)
- GI50 [5]: > 100 µM
- GI50 [6]: > 100 µM (inactive)
- GI50 [7]: > 100 µM (inactive)
- GI50 [8]: > 100 µM (inactive)
- GI50 [9]: > 100 µM (inactive)
- GI50 [10]: > 100 µM (inactive)
- GI50 [11]: > 100 µM (inactive)
- GI50 [12]: > 100 µM (inactive)
- GI50 [13]: 6.53 µM (inactive)
- GI50 [14]: > 100 µM (inactive)
- GI50 [15]: > 100 µM (inactive)
- GI50 [16]: > 100 µM (inactive)
- GI50 [17]: > 100 µM (inactive)
- GI50 [18]: > 100 µM (inactive)

Compound: COC(CNC(=O)C(C)NC(=O)CCc1ccccc1)OC (stereo not given)
- GI50 [2]: > 100 µM (inactive)
- GI50 [3]: > 100 µM (inactive)
- GI50 [4]: > 100 µM (inactive)
- GI50 [5]: > 100 µM
- GI50 [19]: > 100 µM (inactive)
- GI50 [6]: > 100 µM (inactive)
- GI50 [7]: > 100 µM (inactive)
- GI50 [9]: > 100 µM (inactive)
- GI50 [20]: > 100 µM (inactive)
- GI50 [10]: > 100 µM (inactive)
- GI50 [11]: > 100 µM (inactive)
- GI50 [12]: > 100 µM (inactive)
- GI50 [13]: > 100 µM (inactive)
- GI50 [14]: > 100 µM (inactive)
- GI50 [15]: > 100 µM (inactive)
- GI50 [16]: > 100 µM (inactive)
- GI50 [17]: > 100 µM (inactive)
- GI50 [18]: > 100 µM (inactive)

Compound: CC(C)C1C(=O)N2CCCC2C2(O)OC(NC(=O)C3C=C4c5cccc6[nH]cc(c56)CC4N(C)C3)(C(C)C)C(=O)N12 (stereo not given)
- GI50 [2]: 25.4 µM (inactive)
- GI50 [3]: 24.7 µM (inactive)
- GI50 [4]: 35.4 µM (inactive)
- GI50 [5]: 20.5 µM
- GI50 [19]: 14.2 µM (inactive)
- GI50 [6]: 14.9 µM (inactive)
- GI50 [7]: 20.7 µM (inactive)
- GI50 [8]: 18.1 µM (inactive)
- GI50 [9]: 21.1 µM (inactive)
- GI50 [10]: 17.7 µM (inactive)
- GI50 [11]: 20.6 µM (inactive)
- GI50 [13]: 32.4 µM (inactive)
- GI50 [14]: 30.1 µM (inactive)
- GI50 [15]: 47.6 µM (inactive)
- GI50 [16]: 21.8 µM (inactive)
- GI50 [17]: 28.7 µM (inactive)
- GI50 [18]: 18.1 µM (inactive)

Compound: N=C(N)NS(=O)(=O)c1ccc(NC(=O)c2ccc3nc4ccccc4c(O)c3c2)cc1
- GI50 [2]: > 100 µM (inactive)
- GI50 [3]: > 100 µM (inactive)
- GI50 [4]: > 100 µM (inactive)
- GI50 [5]: > 100 µM
- GI50 [19]: > 100 µM (inactive)
- GI50 [6]: > 100 µM (inactive)
- GI50 [7]: > 100 µM (inactive)
- GI50 [8]: 49.7 µM (inactive)
- GI50 [9]: > 100 µM (inactive)
- GI50 [20]: > 100 µM (inactive)
- GI50 [10]: > 100 µM (inactive)
- GI50 [11]: > 100 µM (inactive)
- GI50 [12]: > 100 µM (inactive)
- GI50 [13]: > 100 µM (inactive)
- GI50 [14]: > 100 µM (inactive)
- GI50 [15]: > 100 µM (inactive)
- GI50 [16]: > 100 µM (inactive)
- GI50 [17]: > 100 µM (inactive)
- GI50 [18]: > 100 µM (inactive)

Compound: CC(=O)OCC1OC(n2cnc(C(N)=S)c2N)C(OC(C)=O)C1OC(C)=O (stereo not given)
- GI50 [2]: > 100 µM (inactive)
- GI50 [3]: > 100 µM (inactive)
- GI50 [4]: > 100 µM (inactive)
- GI50 [5]: > 100 µM
- GI50 [19]: > 100 µM (inactive)
- GI50 [6]: > 100 µM (inactive)
- GI50 [7]: > 100 µM (inactive)
- GI50 [8]: > 100 µM (inactive)
- GI50 [9]: > 100 µM (inactive)
- GI50 [10]: > 100 µM (inactive)
- GI50 [11]: > 100 µM (inactive)
- GI50 [12]: > 100 µM (inactive)
- GI50 [13]: > 100 µM (inactive)
- GI50 [14]: > 100 µM (inactive)
- GI50 [15]: > 100 µM (inactive)
- GI50 [16]: > 100 µM (inactive)
- GI50 [17]: > 100 µM (inactive)
- GI50 [18]: > 100 µM (inactive)

Compound: O=C(c1ccccc1Cl)n1oc2ccccc2c1=O
- GI50 [1]: > 100 µM (inactive)
- GI50 [2]: 84.5 µM (inactive)
- GI50 [3]: 27.5 µM (inactive)
- GI50 [4]: > 100 µM (inactive)
- GI50 [5]: 85.5 µM
- GI50 [19]: 25.2 µM (inactive)
- GI50 [6]: 69.2 µM (inactive)
- GI50 [7]: 84.1 µM (inactive)
- GI50 [8]: 72.3 µM (inactive)
- GI50 [9]: > 100 µM (inactive)
- GI50 [20]: 68.7 µM (inactive)
- GI50 [10]: > 100 µM (inactive)
- GI50 [11]: 82.4 µM (inactive)
- GI50 [12]: > 100 µM (inactive)
- GI50 [14]: 57 µM (inactive)
- GI50 [15]: > 100 µM (inactive)
- GI50 [16]: > 100 µM (inactive)
- GI50 [17]: 86.7 µM (inactive)
- GI50 [18]: > 100 µM (inactive)

Compound: Clc1cc2nc(C3CCCCO3)[nH]c2cc1Cl (stereo not given)
- GI50 [2]: 11.1 µM (inactive)
- GI50 [3]: 35.3 µM (inactive)
- GI50 [4]: 48.6 µM (inactive)
- GI50 [5]: 6.98 µM
- GI50 [19]: 35.7 µM (inactive)
- GI50 [6]: 24 µM (inactive)
- GI50 [7]: 10.6 µM (inactive)
- GI50 [8]: 20.3 µM (inactive)
- GI50 [9]: 22.3 µM (inactive)
- GI50 [20]: 8.17 µM (inactive)
- GI50 [10]: > 100 µM (inactive)
- GI50 [11]: 6.03 µM (inactive)
- GI50 [12]: 15.9 µM (inactive)
- GI50 [13]: 4.49 µM (inactive)
- GI50 [14]: 19.6 µM (inactive)
- GI50 [15]: 14.3 µM (inactive)
- GI50 [16]: > 77.3 µM (inactive)
- GI50 [17]: 59.2 µM (inactive)
- GI50 [18]: 24.5 µM (inactive)

Compound: O=C(O)COc1cc(-c2ccccc2F)nc2cc3c(cc12)OCO3
- GI50 [2]: 98.6 µM (inactive)
- GI50 [3]: > 100 µM (inactive)
- GI50 [4]: > 100 µM (inactive)
- GI50 [5]: > 100 µM
- GI50 [19]: 61.8 µM (inactive)
- GI50 [6]: > 100 µM (inactive)
- GI50 [7]: > 100 µM (inactive)
- GI50 [8]: > 100 µM (inactive)
- GI50 [9]: > 100 µM (inactive)
- GI50 [20]: > 100 µM (inactive)
- GI50 [10]: > 100 µM (inactive)
- GI50 [11]: > 100 µM (inactive)
- GI50 [12]: > 100 µM (inactive)
- GI50 [13]: > 100 µM (inactive)
- GI50 [14]: > 100 µM (inactive)
- GI50 [15]: > 100 µM (inactive)
- GI50 [16]: > 100 µM (inactive)
- GI50 [17]: > 100 µM (inactive)
- GI50 [18]: > 100 µM (inactive)
